According to BindingDB's records for patent US9040727 (Shanghai Institute of Pharmaceutical Industry, 2015):

Molecular target: Histone deacetylase 1 (Homo sapiens, UniProt Q13547)
Assay: Inhibition Assay

Sequence of Histone deacetylase 1 (Q13547 whole entry): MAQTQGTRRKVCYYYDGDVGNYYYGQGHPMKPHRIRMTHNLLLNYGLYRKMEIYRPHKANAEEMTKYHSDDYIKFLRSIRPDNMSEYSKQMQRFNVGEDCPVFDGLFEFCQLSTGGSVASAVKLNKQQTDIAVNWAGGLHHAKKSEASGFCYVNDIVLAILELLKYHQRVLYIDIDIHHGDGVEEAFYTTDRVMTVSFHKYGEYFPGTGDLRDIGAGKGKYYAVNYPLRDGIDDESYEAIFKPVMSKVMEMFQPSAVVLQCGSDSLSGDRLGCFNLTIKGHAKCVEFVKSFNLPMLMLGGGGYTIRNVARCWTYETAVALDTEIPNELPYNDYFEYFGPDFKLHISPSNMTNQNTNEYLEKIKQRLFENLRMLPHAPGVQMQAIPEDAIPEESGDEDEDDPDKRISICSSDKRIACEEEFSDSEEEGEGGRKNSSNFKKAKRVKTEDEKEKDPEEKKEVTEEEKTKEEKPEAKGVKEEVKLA

First: Nc1ccc(F)cc1NC(=O)c1ccc(CNC(=O)c2cc3ccccc3o2)cc1 [US9040727, V-9]
Second: Nc1ccccc1NC(=O)c1ccc(CNC(=O)c2cc3ccccc3o2)cc1 [US9040727, V-8]
The IC50 of the first is 4.1-fold lower: 178 nM for the first, 732 nM for the second. The first is the more potent here.

Compared with `Nc1ccccc1NC(=O)c1ccc(CNC(=O)c2cc3cc(C(F)(F)F)ccc3[nH]2)cc1` [US9040727, V-20], `Nc1ccccc1NC(=O)c1ccc(CNC(=O)c2cc3ccccc3[nH]2)cc1` [US9040727, V-5] is 4.8-fold lower in IC50: 1010 nM for the first, 212 nM for the second.

First: Nc1ccc(-c2cccs2)cc1NC(=O)c1ccc(CNC(=O)c2cc3ccccc3o2)cc1 [US9040727, V-10]
Second: Nc1ccc(-c2ccco2)cc1NC(=O)c1ccc(CNC(=O)c2nc3ccccc3[nH]2)cc1 [US9040727, V-14]
The IC50 of the first is 4.9-fold higher: 1610 nM for the first, 330 nM for the second. The second is the more potent here.
